Data as given in patent US12516064B2, “Tetrahydropyridopyrimidines and related analogs for inhibiting YAP/TAZ-TEAD” (THE KATHOLIEKE UNIVERSITEIT LEUVEN, priority 2022, dated 2026).
pEC50: −log10 of the molar value.

What was measured:
Assay type in all cases: cell-based
[1] = test system: YAP/TAZ-TEAD transcription; experiment: Reporter gene assay for measuring the inhibition of YAP/TAZ-TEAD transcription; settings: Homo sapiens, HEK-293T; Hek293T cells transiently transfected with TEAD-responsive element luciferase reporter; 24 hours incubation
In short: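 HEK293T cells transiently transfected with a TEAD-responsive luciferase reporter, plated onto pre-diluted compounds and incubated 24 h at 37 °C/5% CO2. Luminescence read after SteadyLite substrate; percent inhibition scaled between vehicle (0%) and positive control inhibitor (100%), giving IC50/EC50.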

NCI-H226 = experiment: Mesothelioma cell line proliferation assay (NCI-H226); settings: Homo sapiens, 144 h; NCI-H226 cells; 6 days with compound; cell viability by ATPlite
Description: (§1) Mesothelioma cell lines, NCI-H226 and NCI-H2052 (all sourced from the ATCC cell culture collection) are plated in 96-well plates (Corning® 96 Well White Polystyrene Microplate clear flat bottom, white polystyrene (TC-Treated)), at 1500 cells/well in full medium (RPMI 1640 ATCC modification with L-glutamine, HEPES, Phenol Red, Sodium Pyruvate, High glucose, Low sodium bicarbonate and 10% fetal bovine serum). Cells are incubated overnight at 37° C. in an incubator with 5% CO2. Then compounds, dissolved in DMSO, are added in dose-response. Cells are incubated with compound dilutions for another 6 days at 37° C. in an incubator with 5% CO2. Cell viability is quantitated using the ATPlite kit (Perkin-Elmer) and the luminescence is read-out using an Envision instrument (Perkin-Elmer). The amount of relative light units produced using the ATPlite kit is used to calculated percent of inhibition.
(§2) The activities of some example compounds are depicted in Table 9. The activity ranges A, B and C refer to EC50 values in the mesothelioma cell line proliferation assay as described as follows: “A”: EC50<1 μM; “B”: 1 μM≤EC50≤10 μM and “C”: EC50>10 μM; NT: not tested.

NCI-H2052 = experiment: Mesothelioma cell line proliferation assay (NCI-H2052); settings: Homo sapiens, 144 h; NCI-H2052 cells; 6 days with compound; cell viability by ATPlite
Description: as §1, §2

SMILES	pEC50 [1]	pEC50 (NCI-H226)	pEC50 (NCI-H2052)
C=C(C)C(=O)N1CCc2c(nc(-c3ccc(C(F)(F)F)cc3)nc2-c2ccn(C)n2)C1 [Cpd. No. 77, 2-methyl-1-(4-(1-methyl-1H-pyrazol-3-yl)-2-(4-(trifluoromethyl)phenyl)-5,8-dihydropyrido[3,4-d]pyrimidin-7(6H)-yl)prop-2-en-1-one]	> 6.00	> 6.00	< 5.00
CC#CC(=O)N1CCc2c(nc(-c3ccc(C(F)(F)F)cc3)nc2-c2ccn(C)n2)C1 [Cpd. No. 86, 1-(4-(1-methyl-1H-pyrazol-3-yl)-2-(4-(trifluoromethyl)phenyl)-5,8-dihydropyrido[3,4-d]pyrimidin-7(6H)-yl)but-2-yn-1-one]	> 6.00	> 6.00	> 6.00
C=CC(=O)N1CCc2c(nc(-c3ccc(C(F)(F)F)cc3)nc2-c2cn(C)nn2)C1 [Cpd. No. 87, 1-(4-(1-methyl-1H-1,2,3-triazol-4-yl)-2-(4-(trifluoromethyl)phenyl)-5,8-dihydropyrido[3,4-d]pyrimidin-7(6H)-yl)prop-2-en-1-one]	> 6.00	5.00 to 6.00	5.00 to 6.00
Cn1ccc(-c2nc(-c3ccc(C(F)(F)F)cc3)nc3c2CCN(C(=O)C2CO2)C3)n1 (stereo not drawn) [Cpd. No. 88, (4-(1-methyl-1H-pyrazol-3-yl)-2-(4-(trifluoromethyl)phenyl)-5,8-dihydropyrido[3,4-d]pyrimidin-7(6H)-yl)(oxiran-2-yl)methanone]	> 6.00	> 6.00	5.00 to 6.00
C=CC(=O)N1CCc2c(nc(C3CCC(F)(F)CC3)nc2-c2ccn(C)n2)C1 [Cpd. No. 89, 1-(2-(4,4-difluorocyclohexyl)-4-(1-methyl-1H-pyrazol-3-yl)-5,8-dihydropyrido[3,4-d]pyrimidin-7(6H)-yl)prop-2-en-1-one]	> 6.00	> 6.00	< 5.00
CCC(=O)N1CCc2c(nc(C3CCC(F)(F)CC3)nc2-c2ccn(C)n2)C1 [Cpd. No. 90, 1-(2-(4,4-difluorocyclohexyl)-4-(1-methyl-1H-pyrazol-3-yl)-5,8-dihydropyrido[3,4-d]pyrimidin-7(6H)-yl)propan-1-one]	5.52 to 6.00	< 5.00	< 5.00
C=CC(=O)N1CCc2c(nc(-c3ccc(C(F)(F)F)cc3)nc2-c2cnn(C)n2)C1 [Cpd. No. 92, 1-(4-(2-methyl-2H-1,2,3-triazol-4-yl)-2-(4-(trifluoromethyl)phenyl)-5,8-dihydropyrido[3,4-d]pyrimidin-7(6H)-yl)prop-2-en-1-one]	> 6.00	> 6.00	5.00 to 6.00
CC#CC(=O)N1CCc2c(nc(C3CCC(F)(F)CC3)nc2-c2ccn(C)n2)C1 [Cpd. No. 94, 1-(2-(4,4-difluorocyclohexyl)-4-(1-methyl-1H-pyrazol-3-yl)-5,8-dihydropyrido[3,4-d]pyrimidin-7(6H)-yl)but-2-yn-1-one]	> 6.00	> 6.00	< 5.00
